Assay results as given in BigSolDB 2.1.

Cl.Cl.Fc1ccc(C(c2ccc(F)cc2)N2CCN(C/C=C/c3ccccc3)CC2)cc1
solubility (mole fraction)
Details | in acetone | in acetonitrile | in ethanol | in ethyl acetate | in isobutanol | in isopropanol | in methanol | in methyl acetate | in n-butanol | in n-propanol
293.15 K | 0.00271 | 0.00219 | 0.00522 | 0.00146 | 0.00186 | 0.0026 | 0.00604 | 0.00133 | 0.00185 | 0.00472
298.15 K | 0.00338 | 0.00275 | 0.00649 | 0.00184 | 0.00236 | 0.00328 | 0.0076 | 0.00168 | 0.00236 | 0.00587
303.15 K | 0.00422 | 0.00343 | 0.00792 | 0.00229 | 0.00296 | 0.00406 | 0.00934 | 0.00211 | 0.00296 | 0.00714
308.15 K | 0.00518 | 0.00428 | 0.00975 | 0.00285 | 0.00371 | 0.00501 | 0.0115 | 0.00263 | 0.00372 | 0.00877
313.15 K | 0.00638 | 0.00528 | 0.0119 | 0.00353 | 0.00462 | 0.00618 | 0.0139 | 0.00326 | 0.00464 | 0.0108
318.15 K | 0.0078 | 0.00651 | 0.0145 | 0.00434 | 0.00573 | 0.00756 | 0.017 | 0.004 | 0.00575 | 0.013
323.15 K | 0.00948 | 0.008 | 0.0176 | 0.0053 | 0.00711 | 0.00919 | 0.0207 | 0.00494 | 0.00712 | 0.0157
328.15 K | 0.0115 | 0.00977 | 0.0211 | 0.00644 | 0.00873 | 0.0112 | 0.025 | 0.00603 | 0.00875 | 0.0189
333.15 K | 0.0139 | 0.0119 | 0.0252 | 0.00782 | 0.0106 | 0.0136 | 0.0298 | 0.00736 | 0.0107 | 0.0225
